Laboratory results reported in US8497283B2, “Autotaxin inhibitors” (Merck Patent GmbH, priority 2009, dated 2013).

Molecular target: T1, recombinant autotaxin (Homo sapiens, UniProt Q13822)
T1 construct: made in house; host or cells: Hi5 insect cells (baculovirus)
Assay: Autotaxin assay (Amplex Red fluorescence, LPC substrate)
Format: biochemical
Settings: for IC50: ten serial 1:3 dilutions starting at 30 μM, duplicates, 75 μM LPC, values given as upper bounds
In short: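 Recombinant human autotaxin (Hi5 baculovirus) pre-incubated with compound 30 min at 22° C, then 75 μM LPC added for 90 min at 37° C. Choline released detected via choline oxidase/peroxidase/Amplex Red fluorescence (Ex 485, Em 612 nm); ten 1:3 dilutions from 30 μM, normalised to 500 μM C14 LPA, for IC50.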

IC50	% CTRL (1E−05) (percent of uninhibited control (100%) at 1E−05 M compound)	Structure (SMILES)
< 10 µM	–	COC(=O)c1c(NC(=O)Nc2ccc(Cl)cc2)sc2c1CCN(C(=O)c1ccc3[nH]c(=O)oc3c1)C2 [Compound 26, 2-[3-(4-Chloro-phenyl)-ureido]-6-(2-oxo-2,3-dihydro-benzooxazole-6-carbonyl)-4,5,6,7-tetrahydro-thieno[2,3-c]pyridine-3-carboxylic acid methyl ester]
< 10 µM	–	NC(=O)c1c(NC(=O)Nc2ccc(Cl)cc2)sc2c1CCN(C(=O)c1cccnc1)C2 [Compound 19, 2-[3-(4-Chloro-phenyl)-ureido]-6-(pyridine-3-carbonyl)-4,5,6,7-tetrahydro-thieno[2,3-c]pyridine-3-carboxylic acid amide]
–	64%	O=C(Nc1ccc(C(F)(F)F)cc1)Nc1nc2ccc(C(=O)Nc3ccc4[nH]nnc4c3)cc2s1 [Compound 32, 2-[3-(4-Trifluoromethyl-phenyl)-ureido]-benzothiazole-6-carboxylic acid (1H-benzotriazol-5-yl)-amide]

More lines, now with the values behind:

Structure (SMILES)	IC50	% CTRL (1E−05) (percent of uninhibited control (100%) at 1E−05 M compound)
NC(=O)c1c(NC(=O)Cc2ccc(Cl)cc2F)sc2c1CCN(C(=O)c1ccc3[nH]nnc3c1)C2 [Compound 9, 6-(1H-Benzotriazole-5-carbonyl)-2-[2-(4-chloro-2-fluoro-phenyl)-acetylamino]-4,5,6,7-tetrahydro-thieno[2,3-c]pyridine-3-carboxylic acid amide]	< 1 µM	–
NC(=O)c1c(NC(=O)CCc2ccc(Cl)cc2)sc2c1CCN(C(=O)c1ccc3[nH]nnc3c1)C2 [Compound 5, 6-(1H-Benzotriazole-5-carbonyl)-2-[3-(4-chloro-phenyl)-propionylamino]-4,5,6,7-tetrahydro-thieno[2,3-c]pyridine-3-carboxylic acid amide]	< 1 µM	–
